Test results as given in patent publication US12559509B1, “Citrate coordination complex of an orally-delivered beta-lactamase inhibitor and uses thereof” (priority 2023, dated 2026).
Structures can show the parent of a compound that is named as a salt.

Columns and labels:
[1] = Dynamic Vapor Sorption (DVS) analysis; assay type: physicochemical; conditions: for solid form after DVS cycle, by XRPD: 0% RH to 98% RH and back to 0% RH; for weight gain: above 85% RH (up to 98% RH); for weight gain with increasing RH: between 0% RH and 85% RH
Procedure: Moisture sorption/desorption data were collected on a DVS-intrinsic vapor sorption analyzer (Surface Measurement Systems NA, Allentown, PA, USA) and operated with DVS-intrinsic control software (Version 1.0.5.1). Samples were not dried prior to analysis. Sorption and desorption data were collected over a range from 5% to 98% relative humidity (RH) via 10% RH increments under a nitrogen purge. The equilibrium criterion used for analysis was less than 0.005% weight change in 10 min with a maximum equilibration time of 3 h.
The DVS isotherm of Form B is qualitatively similar to that of Form A. Form B lost 0.1 wt % upon equilibration at ˜0% RH.

[2] = Excipient compatibility at 50° C., HPLC purity; assay type: physicochemical; conditions: for chemical stability in the presence of the excipients (in words): accelerated data
Procedure: The compatibility of the drug substances with select functional excipients was confirmed by comparing the assay and purity of samples stored at 50° C. for 5 weeks to the drug substance control samples. The excipients tested included: microcrystalline cellulose (binder); magnesium stearate (lubricant); sodium starch glycolate (disintegrant); and colloidal silica (glidant). […] The samples were transferred to a 3-dram glass vial with a tight-fitting cap and placed in a 50° C. oven.

[3] = Chemical stability of drug substance controls and binary blend, HPLC purity; assay type: physicochemical; conditions: for degradation (in words): controls and binary blend, 25° C. and 40° C., through 12 weeks
[4] = monkeys, reported; cited from earlier work
[5] = Dissolution testing (Apparatus II method) of capsule prototypes; assay type: physicochemical; conditions: FDC capsule with ceftibuten dihydrate, 900 mL pH 6.8 50 mM sodium bicarbonate buffer, 75 RPM paddle
Procedure: In some embodiments, the citrate coordination complex allows for the development of a dry powder, immediate release formulation as compared to other forms, such as the ethanolate, which could not be formulated directly as an immediate release formulation. […] Dissolution testing (Apparatus II method) was performed using 900 mL of pH 6.8 50 mM sodium bicarbonate buffer solution and a 75 RPM paddle speed.

[6] = drug substance control, 25° C. Storage, 0 weeks
[7] = drug substance control, 25° C. Storage, 5 weeks
[8] = drug substance control, 25° C. Storage, 8 weeks
[9] = drug substance control, 25° C. Storage, 12 weeks
[10] = drug substance control, 40° C. Storage, 0 weeks
[11] = drug substance control, 40° C. Storage, 5 weeks
[12] = drug substance control, 40° C. Storage, 8 weeks
[13] = drug substance control, 40° C. Storage, 12 weeks
[14] = in binary Blend, 25° C. Storage, 0 weeks
[15] = in binary Blend, 25° C. Storage, 5 weeks
[16] = in binary Blend, 25° C. Storage, 8 weeks
[17] = in binary Blend, 25° C. Storage, 12 weeks
[18] = in binary Blend, 40° C. Storage, 0 weeks
[19] = in binary Blend, 40° C. Storage, 8 weeks
[20] = in binary Blend, 40° C. Storage, 12 weeks

SMILES: CCC(=O)N[C@@H](Cc1cccc(C(=O)OCOC(=O)C(CC)CC)c1O)B(O)O.O=C(O)CC(O)(CC(=O)O)C(=O)O [(R)-(2-(3-((((2-ethylbutanoyl)oxy)methoxy)carbonyl)-2-hydroxyphenyl)-1-propionamidoethyl)boronic acid citrate]
- solid form after DVS cycle, by XRPD [1]: XRPD of the sample matched that of the material before DVS analysis
- Change In Mass (%)-ref, Desorption ([1]; Target RH 0.0 %): −0.17%
- Change In Mass (%)-ref, Sorption ([1]; Target RH 0.0 %): −0.07%
- Change In Mass (%)-ref, Desorption ([1]; Target RH 5.0 %): −0.13%
- Change In Mass (%)-ref, Hysteresis ([1]; Target RH 5.0 %): −0.07%
- Change In Mass (%)-ref, Sorption ([1]; Target RH 5.0 %): −0.05%
- Change In Mass (%)-ref, Desorption ([1]; Target RH 15.0 %): −0.05%
- Change In Mass (%)-ref, Hysteresis ([1]; Target RH 15.0 %): −0.08%
- Change In Mass (%)-ref, Sorption ([1]; Target RH 15.0 %): 0.04%
- Change In Mass (%)-ref, Desorption ([1]; Target RH 25.0 %): 0.06%
- Change In Mass (%)-ref, Hysteresis ([1]; Target RH 25.0 %): −0.07%
- Change In Mass (%)-ref, Sorption ([1]; Target RH 25.0 %): 0.13%
- Change In Mass (%)-ref, Desorption ([1]; Target RH 35.0 %): 0.13%
- Change In Mass (%)-ref, Hysteresis ([1]; Target RH 35.0 %): −0.04%
- Change In Mass (%)-ref, Sorption ([1]; Target RH 35.0 %): 0.17%
- Change In Mass (%)-ref, Desorption ([1]; Target RH 45.0 %): 0.25%
- Change In Mass (%)-ref, Hysteresis ([1]; Target RH 45.0 %): −0.06%
- Change In Mass (%)-ref, Sorption ([1]; Target RH 45.0 %): 0.31%
- Change In Mass (%)-ref, Desorption ([1]; Target RH 55.0 %): 0.43%
- Change In Mass (%)-ref, Hysteresis ([1]; Target RH 55.0 %): 0.02%
- Change In Mass (%)-ref, Sorption ([1]; Target RH 55.0 %): 0.41%
- Change In Mass (%)-ref, Desorption ([1]; Target RH 65.0 %): 0.56%
- Change In Mass (%)-ref, Hysteresis ([1]; Target RH 65.0 %): 0.03%
- Change In Mass (%)-ref, Sorption ([1]; Target RH 65.0 %): 0.53%
- Change In Mass (%)-ref, Desorption ([1]; Target RH 85.0 %): 1.11%
- Change In Mass (%)-ref, Hysteresis ([1]; Target RH 85.0 %): 0.13%
- Change In Mass (%)-ref, Sorption ([1]; Target RH 85.0 %): 0.98%
- Change In Mass (%)-ref, Desorption ([1]; Target RH 95.0 %): 11.32%
- Change In Mass (%)-ref, Hysteresis ([1]; Target RH 95.0 %): 2.85%
- Change In Mass (%)-ref, Sorption ([1]; Target RH 95.0 %): 8.47%
- Change In Mass (%)-ref, Desorption ([1]; Target RH 98.0 %): 11.18%
- Change In Mass (%)-ref, Sorption ([1]; Target RH 98.0 %): 11.18%
- Change In Mass (%)-ref, Desorption ([1]; Target RH […]): 0.79%
- Change In Mass (%)-ref, Hysteresis ([1]; Target RH […]): 0.12%
- Change In Mass (%)-ref, Sorption ([1]; Target RH […]): 0.66%
- weight gain [1]: 11.2%
- weight lost upon equilibration ([1]; at ˜0% RH): 0.1 wt %
- weight gain with increasing RH [1]: ~1.0 wt %

SMILES: CCC(=O)N[C@@H](Cc1cccc(C(=O)OCOC(=O)C(CC)CC)c1O)B1OC(=O)C(CC(=O)O)(CC(=O)O)O1 [(R)-(2-(3-((((2-ethylbutanoyl)oxy)methoxy)carbonyl)-2-hydroxyphenyl)-1-propionamidoethyl)boronic acid citrate]
- solid form after DVS cycle, by XRPD [1]: remained crystalline, as Form A
- hygroscopicity (in words) ([1]; 0-85% RH): non-hygroscopic
- Change In Mass (%)-ref, Desorption ([1]; Target RH 0.0 %): −0.023%
- Change In Mass (%)-ref, Sorption ([1]; Target RH 0.0 %): 0.000%
- Change In Mass (%)-ref, Desorption ([1]; Target RH 5.0 %): 0.012%
- Change In Mass (%)-ref, Hysteresis ([1]; Target RH 5.0 %): −0.006%
- Change In Mass (%)-ref, Sorption ([1]; Target RH 5.0 %): 0.019%
- Change In Mass (%)-ref, Desorption ([1]; Target RH 15.0 %): 0.065%
- Change In Mass (%)-ref, Hysteresis ([1]; Target RH 15.0 %): −0.008%
- Change In Mass (%)-ref, Sorption ([1]; Target RH 15.0 %): 0.073%
- Change In Mass (%)-ref, Desorption ([1]; Target RH 25.0 %): 0.119%
- Change In Mass (%)-ref, Hysteresis ([1]; Target RH 25.0 %): −0.003%
- Change In Mass (%)-ref, Sorption ([1]; Target RH 25.0 %): 0.121%
- Change In Mass (%)-ref, Desorption ([1]; Target RH 35.0 %): 0.167%
- Change In Mass (%)-ref, Hysteresis ([1]; Target RH 35.0 %): 0.008%
- Change In Mass (%)-ref, Sorption ([1]; Target RH 35.0 %): 0.159%
- Change In Mass (%)-ref, Desorption ([1]; Target RH 45.0 %): 0.218%
- Change In Mass (%)-ref, Hysteresis ([1]; Target RH 45.0 %): 0.013%
- Change In Mass (%)-ref, Sorption ([1]; Target RH 45.0 %): 0.205%
- Change In Mass (%)-ref, Desorption ([1]; Target RH 55.0 %): 0.279%
- Change In Mass (%)-ref, Hysteresis ([1]; Target RH 55.0 %): 0.019%
- Change In Mass (%)-ref, Sorption ([1]; Target RH 55.0 %): 0.259%
- Change In Mass (%)-ref, Desorption ([1]; Target RH 65.0 %): 0.356%
- Change In Mass (%)-ref, Hysteresis ([1]; Target RH 65.0 %): 0.038%
- Change In Mass (%)-ref, Sorption ([1]; Target RH 65.0 %): 0.318%
- Change In Mass (%)-ref, Desorption ([1]; Target RH 85.0 %): 0.604%
- Change In Mass (%)-ref, Hysteresis ([1]; Target RH 85.0 %): 0.102%
- Change In Mass (%)-ref, Sorption ([1]; Target RH 85.0 %): 0.502%
- Change In Mass (%)-ref, Desorption ([1]; Target RH 95.0 %): 4.054%
- Change In Mass (%)-ref, Hysteresis ([1]; Target RH 95.0 %): 0.764%
- Change In Mass (%)-ref, Sorption ([1]; Target RH 95.0 %): 3.289%
- Change In Mass (%)-ref, Desorption ([1]; Target RH 98.0 %): 4.006%
- Change In Mass (%)-ref, Sorption ([1]; Target RH 98.0 %): 4.006%
- Change In Mass (%)-ref, Desorption ([1]; Target RH […]): 0.457%
- Change In Mass (%)-ref, Hysteresis ([1]; Target RH […]): 0.056%
- Change In Mass (%)-ref, Sorption ([1]; Target RH […]): 0.401%
- weight gain [1]: 4.0%
- weight gain with increasing RH [1]: 0.5 wt %

SMILES: Nc1nc(/C(=C/CC(=O)O)C(=O)N[C@@H]2C(=O)N3C(C(=O)O)=CCS[C@H]23)cs1 [Ceftibuten dihydrate, reference compound]
- HPLC Purity (Peak Area %) Ceftibuten ([2]; 2 weeks): 99.2%
- HPLC Purity (Peak Area %) Ceftibuten ([2]; 5 weeks): 94.8%
- degradation (in words) [3]: temperature dependent degradation
- HPLC purity (% peak area) [3, 6]: 98.6%
- HPLC purity (% peak area) [3, 7]: 98.6%
- HPLC purity (% peak area) [3, 8]: 98.6%
- HPLC purity (% peak area) [3, 9]: 98.4%
- HPLC purity (% peak area) [3, 10]: 98.6%
- HPLC purity (% peak area) [3, 11]: 98.4%
- HPLC purity (% peak area) [3, 12]: 96.7%
- HPLC purity (% peak area) [3, 13]: 92.8%
- HPLC purity (% peak area) [3, 14]: 98.4%
- HPLC purity (% peak area) [3, 15]: 98.6%
- HPLC purity (% peak area) [3, 16]: 98.3%
- HPLC purity (% peak area) [3, 17]: 96.8%
- HPLC purity (% peak area) [3, 18]: 97.5%
- HPLC purity (% peak area) [3, 19]: 94.8%
- HPLC purity (% peak area) [3, 20]: 93.7%

SMILES: Nc1nc(/C(=C/CC(=O)O)C(=O)N[C@@H]2C(=O)N3C(C(=O)O)=CCS[C@H]23)cs1 [Ceftibuten, reference compound]
- bioavailability [4]: ~20%
- chemical stability in the presence of the excipients (in words) [2]: comparable to the stability for the drug substance controls

SMILES: CCOB1Oc2c(cccc2C(=O)OCOC(=O)C(CC)CC)C[C@@H]1NC(=O)CC [Compound 1 Ethanolate, ((2-ethylbutanoyl)oxy)methyl (R)-2-ethoxy-3-propionamido-3,4-dihydro-2H-benzo[e][1,2]oxaborinine-8-carboxylate]
- release of the drug substance ([5]; at 60 minutes): < 40%

SMILES: CCC(=O)N[C@@H](Cc1cccc(C(=O)OCOC(=O)C(CC)CC)c1O)B1OC(=O)C(CC(=O)O)(CC(=O)O)O1 [Compound 1 citrate coordination complex, (R)-2,2′-(2-(2-(3-((((2-ethylbutanoyl)oxy)methoxy)carbonyl)-2-hydroxyphenyl)-1-propionamidoethyl)-5-oxo-1,3,2-dioxaborolane-4,4-diyl)diacetic acid]
- HPLC Purity (Peak Area %) Compound 1 ([2]; 2 weeks): 100.0%
- HPLC Purity (Peak Area %) Compound 1 ([2]; 5 weeks): 100.0%
- chemical stability in the presence of the excipients (in words) [2]: comparable to the stability for the drug substance controls
- degradation (in words) [3]: no degradation
- HPLC purity (% peak area) [3, 6]: 100.0%
- HPLC purity (% peak area) [3, 7]: 100.0%
- HPLC purity (% peak area) [3, 8]: 100.0%
- HPLC purity (% peak area) [3, 9]: 100.0%
- HPLC purity (% peak area) [3, 10]: 100.0%
- HPLC purity (% peak area) [3, 11]: 100.0%
- HPLC purity (% peak area) [3, 12]: 100.0%
- HPLC purity (% peak area) [3, 13]: 100.0%
- HPLC purity (% peak area) [3, 14]: 100.0%
- HPLC purity (% peak area) [3, 15]: 100.0%
- HPLC purity (% peak area) [3, 16]: 100.0%
- HPLC purity (% peak area) [3, 17]: 100.0%
- HPLC purity (% peak area) [3, 18]: 100.0%
- HPLC purity (% peak area) ([3]; in binary Blend, 40° C. Storage, 5 weeks): 100.0%
- HPLC purity (% peak area) [3, 19]: 100.0%
- HPLC purity (% peak area) [3, 20]: 100.0%
- release of the drug substance ([5]; by 10 minutes): 100%
